Reference: patent US12502374B2, “Composition for preventing, alleviating, or treating inflammatory disease containing isookanin or salt thereof as active ingredient” (BioSpectrum, Inc., priority 2020, dated 2025)

Experiments:
human skin [1] = experiment: Human skin safety, repeated insult patch test (Finn chamber); type: in vivo; conditions: 30 healthy adults; 10th patch test; dash = no subject
human skin [2] = experiment: as above; type: in vivo; conditions: 30 healthy adults
Method: In order to confirm that the isookanin according to the present invention is safe for human skin, a skin safety verification test was performed. To this end, a repeated insult patch test was conducted.
Nourishing creams containing the isookanin in amounts of 0.1%, 0.5% and 1%, respectively, were prepared. Specifically, a water phase containing purified water, triethanolamine and propylene glycol was dissolved by heating to 70° C. and then emulsified by adding a solution obtained by dissolving beeswax, liquid paraffin, an oil component, an emulsifier and a preservative by heating to 70° C. After completion of emulsification, the solution was cooled to 45° C., and the isookanin was added thereto in amounts of 0.1%, 0.5% and 1% and dispersed therein, followed by cooling to 30° C. As the content of the isookanin was increased from 0.1% to 0.5% and 1%, the content of liquid paraffin was decreased from 9.91% to 9.51% and 9.01%, respectively, thereby preparing nourishing creams.
Using the nourishing creams prepared as described above, a repeated insult patch test was conducted on the upper arm areas of 30 healthy adults every other day for a total of 9 times for 24 hours per time to determine whether the isookanin irritated the skin.
The patch test was performed using a Finn chamber (Epitest Ltd., Finland). 15 μl of each of the external skin preparations was dropped into the chamber, and then the patch test was performed.
[Equation 1] Average degree of reaction=[[(reaction index×degree of reaction)/(total number of subjects×highest score (4)]×100]÷number of tests (9)
In the degree of reaction, ± represents a score of 1, + represents a score of 2, and ++ represents a score of 4. When the average degree of reaction is less than 3, the corresponding composition is determined to be safe.

HMEC-1 [3] = experiment: PGE2-induced vascular endothelial cell migration (scratch assay); type: cell-based, human; conditions: 20 μM, 24 hours; compared with 100 ng/ml VEGF
Method: Human vascular endothelial cells (HMEC-1) were seeded in a 12-well plate at a density of 2×10^5 cells per well and cultured in an incubator for 24 hours at 37° C. under 5% CO2. After the cells in each well were grown to 80% confluency, the central part of each well was scratched using a yellow pipette tip. Next, each well was pretreated with each concentration of isookanin for 2 hours and then treated with 20 μM PGE2 and incubated for 24 hours. As a negative control, 100 ng/ml of VEGF was used. After 24 hours of incubation, the degree of vascular cell migration was observed using a microscope, and the results were photographed with a microscope camera and shown in FIG. 9.

HMEC-1 [4] = experiment: PGE2-induced vascular endothelial cell tube formation on Matrigel; type: cell-based, human; conditions: 20 μM, 24 hours; compared with 100 ng/ml VEGF
Method: Human vascular endothelial cells (HMEC-1) were seeded in a Matrigel-coated 24-well plate at a density of 1.2×10^5 cells per well, and each well was pretreated with 10 ppm of isookanin for 2 hours. Next, each well was treated with PGE2 at a concentration of 20 μM and incubated for 24 hours. As a negative control, 100 ng/ml of VEGF was used. After 24 hours of incubation, the degree of vascular cell tube formation was observed using a microscope, and the results were photographed with a microscope camera and analyzed with Image J, and are shown in FIGS. 10 and 11.

Row | SMILES | Number of subjects showing reaction (±, +, ++), 10th (human skin [1]) | Average degree of reaction (human skin [2]; upper arm, 24 hours per patch, Equation 1, less than 3 is determined to be safe) | Number of subjects showing reaction (±, +, ++), 1st (human skin [2]; 1st patch test, dash = no subject) | Number of subjects showing reaction (±, +, ++), 2nd (human skin [2]; 2nd patch test, dash = no subject) | Number of subjects showing reaction (±, +, ++), 5th (human skin [2]; 5th patch test, dash = no subject) | Number of subjects showing reaction (±, +, ++), 6th (human skin [2]; 6th patch test, dash = no subject) | Number of subjects showing reaction (±, +, ++), 7th (human skin [2]; 7th patch test, dash = no subject) | Number of subjects showing reaction (±, +, ++), 8th (human skin [2]; 8th patch test, dash = no subject) | Number of subjects showing reaction (±, +, ++), column between 3rd and 5th (human skin [2]; dash = no subject) | effect on vascular endothelial cell migration (HMEC-1 [3]) | effect on vascular cell tube formation (HMEC-1 [4])
1 | CC(C)=CCC/C(C)=C/CC/C(C)=C/CC/C=C(\C)CC/C=C(\C)CCC=C(C)C [squalene] | - - - | 0.09 | - - - | - - - | - - - | - - | - - - | - - - | - - - |  | 
2 | CCCCC[C@H](O)/C=C/[C@H]1[C@H](O)CC(=O)[C@@H]1C/C=C\CCCC(=O)O [PGE2, reference compound] |  |  |  |  |  |  |  |  |  | promoted vascular endothelial cell migration, similar to VEGF | promoted vascular cell tube formation, similar to VEGF
